Results on one molecule are retold here after patent US11779567B2, “Method for optimizing 5-hydroxytryptamine function in the brain for therapeutic purposes” (Evecxia Therapeutics, Inc., priority 2021, dated 2023).

“And” between values parts separate entries of the source, which are not always exact repeats. Identical values can stand only once.

Data set [1] is described as follows: Dose-proportionality assessment (power model) of IV 5-HTP continuous infusion. The format is in vivo, human. As to conditions: doses up to 3 mg/kg/24 hr. From the text: Background: The term dose proportionality denotes a proportional and linear relationship between dose and a pharmacokinetic measure, for the specific (i) dose-range, (i) dosing route, and (iii) dosing regimen investigated. More particularly, if doubling the dose doubles the pharmacokinetic measure of maximal (CMax) or total (AUC) systemic exposure to the compound administered, then dose proportionality is present, at least within the dose ranges examined. […] The relationship between dose and plasma compound concentration (C (e.g., CMax or AUC)) can be described via the following equation: C=α dose^β When β=1, dose proportionality is present. If so, C=α dose. α is a constant relating dose to C, for a given range of C and given dose units, and is identical to the slope of the regression line. In the power model (Smith et al, 2000), dose proportionality is assessed via the following linear equation: log(C)=log(α)+β×log(dose)+error Based on standard statistical methods for linear models, estimates for β together with confidence limits can be derived. […]
Methods: Applying the approach by Smith (Smith et al, 2000), using a general linear model and SAS software Version 9.4, dose proportionality of continuously administered IV 5-HTP was assessed using the data in Table 9, below. […]

A short description of data set [2]: Safety and tolerability of IV 5-HTP continuous infusion. The class given is in vivo, human. How it is done: Methods: Safety and tolerability of the IV 5-HTP continuous infusion were assessed during the 24 hr administration of IV 5-HTP infusion (see Example 5) or placebo and approximately 24 hr after end of the infusion. Safety and tolerability of the IV 5-HTP infusion were assessed by monitoring of adverse events (AEs), standard clinical safety laboratory tests, electrocardiograms (ECG), vital signs, and clinical scales of suicidality. The safety population included all subjects. Vital sign measurements included systolic blood pressure (mmHg), diastolic blood pressure (mmHg), heart rate (beats/min), respiratory rate (breaths/min), and oral temperature. Twelve-lead electrocardiogram measurements were performed in triplicate. The recorded parameters included heart rate (beats/min), PR (msec), QRS (msec), and QTcF (msec). Assessments were rated as normal, not clinically significant, or clinically significant. Clinical laboratory tests included a complete blood count, chemistry panel, coagulation panel, and thyroid stimulating hormone.
Statistics: Descriptive statistics (n, mean, SD, minimum, and maximum) for absolute values and changes from baseline were calculated.

The subject of data set [3] is plasma cortisol. Kind of data set: Pharmacodynamics: acute increase in plasma cortisol. The class given is in vivo, human. From the text: Background: Compounds that acutely elevate brain 5-HTExt can activate the hypothalamic pituitary adrenal axis and induce the release of cortisol from the adrenals into the plasma (Attenburrow et al, 2001; Demisch et al, 1986; Guan et al, 2020; Kapitany et al, 1999; Lowe et al, 2006; Meltzer et al, 1983; Sargent et al, 1998). Generally large, acute increases in brain 5-HTExt are required to increase cortisol and the effect desensitizes rapidly with prolonged serotonin elevation (Mashchak et al, 1983).
Method: Total plasma cortisol levels (expressed in μg/dL) were quantified using standard immunoassay methodology. Total plasma cortisol levels were measured at multiple time points during the 24 hr infusion period of 5-HTP solution for IV infusion or placebo. Total plasma cortisol levels were measured at baseline (T=0) before the start of infusion. Blood samples were collected at T=0, and at pre-specified timepoints following initiation of infusion (2, 4, 6, 8, 10, 12, 14, 22, 24 hr). The pharmacodynamic population included subjects who received IV 5-HTP and completed the 24 h infusion or placebo and who had escitalopram levels above the lower limit of quantitation.
Statistics: Changes from baseline value were calculated for each time point using descriptive statistics (n, arithmetic mean, SD, CV). A comparison between active treatment and placebo was made for each time point and cohort using ANOVA with Dunnett's post-hoc correction of the p-value to account for multiple testing. Significance was set at p<0.05. Statistical analysis was executed using SAS software Version 9.4,

The conditions of data set [4]: some solvents (Jacobsen et al, 2016a); cited from earlier work.
[5] abbreviates: 2 mg/kg/24 hr ramp rate infusion.
Where [6] appears, read: ramp flow rate, 1 mg/kg/24 hr, subjects with event/subjects.

For the molecule `N[C@@H](Cc1c[nH]c2ccc(O)cc12)C(=O)O` [5-HTP, 5-hydroxytryptophan], in data set [1], the dose proportionality result was “dose proportionality for doses up to 3 mg/kg/24 hr was accepted”. For the same molecule, the “subjects in whom AEs occurred” value in data set [2] (1 mg/kg/24 hr, ramp flow rate infusion) was 2 subjects. In data set [2] (setting [5]), the “mild AEs: chills, subjects with event” value was 1 and 1/6; the “mild AEs: dizziness, subjects with event” value was 1 and 1/6. Also, in data set [2] (all cohorts), the “5-HTP plasma exposure with which incidence of AEs was more commonly associated” value is more than 100 ng/mL and the “severity of all AEs” value is given as “mild-to-moderate”. The “safety findings in clinical safety laboratory tests, vital signs, 12-lead electrocardiograms” value in data set [2] (all cohorts, 24 hr IV 5-HTP infusion) was “no safety findings”. Besides, the “serious or severe AEs related to the IV 5-HTP infusion” value in data set [2] (any subjects, all cohorts) is reported as “No serious or severe AEs”. In data set [2] (constant flow rate, 1 mg/kg/24 hr group), the AEs result was “no AEs”. For the same molecule, the concentration at 1 h in data set [2] (human, plasma, intravenous, constant rate 3 mg/kg/24 hr, read-out: plasma 5-HTP levels within 1 h in the subjects who discontinued) was in the range of 250 to 300 ng/mL. Further, the “5-HTP plasma levels associated with manifestation of AEs” value in data set [2] (ramp flow rate 1 mg/kg/24 hr, at highest flow rate 55.55 ml/h) is 112 to 266 ng/mL. Moreover, in data set [2] (setting [6]), the “mild AEs: nausea” value is reported as 1/5, the “mild AEs: vomiting” value is given as 1/5, the “moderate AEs: nausea” value is reported as 1/5 and the “moderate AEs: vomiting” value is on record as 1/5. For the same molecule, the “plasma cortisol levels relative to placebo” value in data set [3] (constant flow rate 1 mg/kg/24 hr, 2 hr after start of infusion, p<0.01) is given as “significantly higher”. For the same molecule, in data set [3] (constant flow rate 3 mg/kg/24 hr, 2 hr after start of infusion, p<0.005), the “plasma cortisol levels relative to placebo” value is “significantly higher”. Moreover, in data set [3] (constant flow rate 3 mg/kg/24 hr, throughout the 24 hr infusion, except at the 24 hr time point), the “plasma cortisol levels relative to placebo” value is recorded as “remained significantly higher”. The “increase of plasma cortisol levels relative to placebo” value in data set [3] (ramp flow rate 1 mg/kg/24 hr, 14 hr, trend, p=0.0751) is given as “not statistically significant”. In data set [3] (ramp flow rate 2 mg/kg/24 hr, 14 hr after start of infusion, p<0.05), the “plasma cortisol levels relative to placebo” value is recorded as “significantly higher”. In addition, the “plasma cortisol levels relative to placebo” value in data set [3] (ramp flow rate 3 mg/kg/24 hr, 14 hr after start of infusion, p<0.0001) is listed as “significantly higher”. In addition, the “soluble in some solvents” value in data set [4] was “up to 100 mg/ml”.
